Laboratory results published in patent US20260184712A1, “Heterocyclic Compounds as ENT Inhibitors and Compounds for Use in the Treatment of Cancers” (iTeos Belgium SA, priority 2022, published 2026).

What follows are compounds tested against T1, human ENT1 (Homo sapiens, UniProt Q99808) (assay: ENT1 binding assay (competition with Sahenta-DY647 on JAR cells)). Conditions: Binding Assay IC50, competition with SAHENTA-DY647 binding; IC50 categorized.
T1 construct: JAR cells expressing ENT1 were purchased from ATCC; host or cells: JAR cells
T1 sequence (Q99808 1-456): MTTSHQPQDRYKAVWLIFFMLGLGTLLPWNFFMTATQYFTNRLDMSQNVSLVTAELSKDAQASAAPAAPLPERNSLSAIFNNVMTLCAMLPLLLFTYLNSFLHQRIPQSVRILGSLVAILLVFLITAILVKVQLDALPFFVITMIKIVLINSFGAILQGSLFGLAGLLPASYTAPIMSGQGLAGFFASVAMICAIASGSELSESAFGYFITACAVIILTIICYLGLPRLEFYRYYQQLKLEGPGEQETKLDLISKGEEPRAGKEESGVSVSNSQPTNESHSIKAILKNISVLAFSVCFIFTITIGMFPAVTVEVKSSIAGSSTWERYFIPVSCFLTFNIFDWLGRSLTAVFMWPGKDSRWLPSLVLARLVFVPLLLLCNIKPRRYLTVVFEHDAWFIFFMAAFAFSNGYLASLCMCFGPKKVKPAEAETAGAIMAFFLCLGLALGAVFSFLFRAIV
Procedure: Compounds of the present disclosure were assayed to show ability to bind to human ENT1. The assay is a competition between a compound of interest and Sahenta-DY647, an ENT1 inhibitor that emits fluorescence (Ex=630 nm, Em=670 nm). By measuring the fluorescence at the end of the assay, one can assess the binding potency of the compounds tested. The compounds of the present disclosure were tested and compared to known ENT inhibitors, dilazep and NBMPR:
JAR cells expressing ENT1 were purchased from ATCC® (HTB-144TM). Cells were cultured in RPMI 1640 medium (LONZA®, #BE12-702F/U1) supplemented with 10% FBS (GIBCO®, #10270-106), 10 mM Hepes (LONZA®, #BE17-737E), 1 mM Sodium Pyruvate (LONZA®, #BE13-115E), and 2% Penicillin/Streptomycin (LONZA®, #DE17-603E) at 37° C. and 5% CO2.
The assay was conducted with the following buffer on the day of the assay: HBSS (LONZA®, #LO-527F) supplemented with 10 mM Hepes (LONZA®, #BE17-737E) and 0.1% BSA (Miltenyi®, #130-091-376).
JAR cells were resuspended in the described buffer. The compounds of interest and Sahenta-DY647 were diluted 200× with the described buffer.
A total of 50,000 cells were pre-incubated for 30 min at 4° C. with the compounds of the present disclosure before adding the corresponding amount of Sahenta-DY647 (100 nM) to the minimal concentration at Bmax and incubating for an additional 30 min at 4° C. The total volume of the reaction was 100 μL (50 μL of cells, 25 μL of the compounds of the present disclosure, and 25 μL of Sahenta-DY647) in a U-bottom 96 well plate (Greiner®, #650-180). The plates were washed 2× by centrifugation (4 min, 400 rcf at 4° C.) in the same buffer. Cells were re-suspended in 70 μL of the buffer and 50 μL was transferred to a Black 384 Optiplate (PerkinElmer®, #6007279). Fluorescence (Ex=630 nm, Em=670 nm) was acquired on a Spectramax i3x (Molecular Devices®).
Dose-response data from the compounds were analyzed with Graphpad Prism 9.1.1@software, using nonlinear regression applied to a sigmoidal dose-response model and the following equation:
Y=Bottom+(Top-Bottom)/(1+10^((LogIC50−X)*HillSlope)), with a shared bottom and top between the test reagent and dipyridamole.
Data from multiple experiments were compiled by taking the average pIC50 value for the reagent in question±the standard deviation (s.d.) and expressing it as an average IC50 value in nM.
The inhibitory effect of the test compound was expressed as a percentage of the inhibition of SAHENTA-DY647 binding.

Row | Structure (SMILES) | IC50 [nM]
1 | C[C@H]1O[C@@H](n2cnc3c(SCc4ccccc4)ncnc32)[C@H](O)[C@@H]1O [Compound 224] | > 500

Same assay, conditions: competition with SAHENTA-DY647 binding; IC50 categorized; read-out: Binding Assay IC50

Row | IC50 [nM] | Structure (SMILES)
2 | 1 to 20 | COCCCNc1nc2c(N3CCc4ccc(C#N)cc4C3)ncnc2n1[C@@H]1O[C@H](C)[C@@H](O)[C@H]1O [Compound 160]
3 | 20 to 500 | C[C@H]1O[C@@H](n2cc(C(F)(F)F)c3c(SCc4ccc([N+](=O)[O-])cc4)ncnc32)[C@H](O)[C@@H]1O [Compound 163]
4 | 20 to 500 | C[C@H]1O[C@@H](n2c(NC3CC3)nc3c(N4CCc5ccc(C#N)cc5C4)ncnc32)[C@H](O)[C@@H]1O [Compound 164]
5 | 20 to 500 | C[C@H]1O[C@@H](n2c(NCCO)nc3c(N4CCc5ccc(C#N)cc5C4)ncnc32)[C@H](O)[C@@H]1O [Compound 167]
6 | 20 to 500 | CCOC(=O)/C=C/[C@H]1O[C@@H](n2cnc3c(OCc4ccc([N+](=O)[O-])cc4)ncnc32)[C@H](O)[C@@H]1O [Compound 169]
7 | 20 to 500 | C[C@H]1O[C@@H](n2c(NC3CCOCC3)nc3c(N4CCc5ccccc5C4)ncnc32)[C@H](O)[C@@H]1O [Compound 170]
8 | 20 to 500 | C[C@H]1O[C@@H](n2c(N[C@H]3CC[C@H](O)CC3)nc3c(N4CCc5ccccc5C4)ncnc32)[C@H](O)[C@@H]1O [Compound 171]
9 | 20 to 500 | C[C@H]1O[C@@H](n2c(NC3CCS(=O)(=O)CC3)nc3c(N4CCc5ccccc5C4)ncnc32)[C@H](O)[C@@H]1O [Compound 181]
10 | 20 to 500 | O=[N+]([O-])c1ccc(COc2ncnc3c2ncn3[C@@H]2O[C@H](COCCO)[C@@H](O)[C@H]2O)cc1 [Compound 191]
11 | 20 to 500 | C[C@H]1O[C@@H](n2cnc3c(C4=Cc5cc([N+](=O)[O-])ccc5CC4)ncnc32)[C@H](O)[C@@H]1O [Compound 192]
12 | 20 to 500 | C[C@H]1O[C@@H](n2c(N[C@H]3CC[C@@H](O)CC3)nc3c(N4CCc5ccccc5C4)ncnc32)[C@H](O)[C@@H]1O [Compound 195]
13 | 20 to 500 | C[C@H]1O[C@@H](n2ccc3c(SCc4ccc([N+](=O)[O-])cc4)ncnc32)[C@H](O)[C@@H]1O [Compound 197]
14 | 20 to 500 | CCNc1nc2c(N3CCc4ccc(C#N)cc4C3)ncnc2n1[C@@H]1O[C@H](C)[C@@H](O)[C@H]1O [Compound 198]
15 | 20 to 500 | C[C@H]1O[C@@H](n2cnc3c(OCc4ccc(F)c(F)c4)ncnc32)[C@H](O)[C@@H]1O [Compound 201]
16 | 20 to 500 | C[C@H]1O[C@@H](n2cnc3c(OCc4ccc(F)cc4)ncnc32)[C@H](O)[C@@H]1O [Compound 202]
17 | 20 to 500 | C[C@H]1O[C@@H](n2cnc3c(OCc4ccc(C(F)(F)F)cc4)ncnc32)[C@H](O)[C@@H]1O [Compound 204]
18 | 20 to 500 | C[C@H]1O[C@@H](n2cnc3c(OCc4ccc([N+](=O)[O-])nc4)ncnc32)[C@H](O)[C@@H]1O [Compound 205]
19 | 20 to 500 | C[C@H]1O[C@@H](n2cnc3c(OCc4ccc(C5CC5)cc4)ncnc32)[C@H](O)[C@@H]1O [Compound 206]
20 | 20 to 500 | C[C@H]1O[C@@H](n2cnc3c(SCc4ccc(OCC(F)(F)F)cc4)ncnc32)[C@H](O)[C@@H]1O [Compound 207]
21 | 20 to 500 | C[C@H]1O[C@@H](n2c(-c3cn[nH]c3)nc3c(OCc4ccc([N+](=O)[O-])cc4)ncnc32)[C@H](O)[C@@H]1O [Compound 208]
22 | 20 to 500 | C[C@H]1O[C@@H](n2cnc3c(N4CC(c5ccc([N+](=O)[O-])cc5)C4)ncnc32)[C@H](O)[C@@H]1O [Compound 209]
23 | 20 to 500 | C[C@H]1O[C@@H](n2cnc3c(CCc4ccc([N+](=O)[O-])cc4)ncnc32)[C@H](O)[C@@H]1O [Compound 210]
24 | 20 to 500 | Cc1ccc(COc2ncnc3c2ncn3[C@@H]2O[C@H](C)[C@@H](O)[C@H]2O)cc1 [Compound 211]
25 | 20 to 500 | CC(C)Nc1nc2c(N3CCc4ccccc4C3)ncnc2n1[C@@H]1O[C@H](C)[C@@H](O)[C@H]1O [Compound 212]

Row | IC50 [nM] | Structure (SMILES)
26 | 20 to 500 | C[C@H]1O[C@@H](n2cnc3c(N4CCC(c5ccc([N+](=O)[O-])cc5)CC4)ncnc32)[C@H](O)[C@@H]1O [Compound 213]
27 | 20 to 500 | C[C@H]1C[C@@H](n2cnc3c(SCc4ccc([N+](=O)[O-])cc4)ncnc32)[C@H](O)[C@@H]1O [Compound 214]
28 | 20 to 500 | C[C@H]1O[C@@H](n2c(N)nc3c(OCCc4ccc([N+](=O)[O-])cc4)ncnc32)[C@H](O)[C@@H]1O [Compound 215]
29 | 20 to 500 | O=[N+]([O-])c1ccc(CSc2ncnc3c2ncn3[C@@H]2O[C@H](CO)C[C@H]2O)cc1 [Compound 216]
30 | 20 to 500 | C[C@H]1O[C@@H](n2cnc3c(OCc4cc(Cl)cc(Cl)c4)ncnc32)[C@H](O)[C@@H]1O [Compound 217]
31 | 20 to 500 | O=[N+]([O-])c1ccc(COc2ncnc3c2ncn3[C@@H]2O[C@H](CCCO)[C@@H](O)[C@H]2O)cc1 [Compound 218]
32 | > 500 | CCOC(=O)CC[C@H]1O[C@@H](n2cnc3c(OCc4ccc([N+](=O)[O-])cc4)ncnc32)[C@H](O)[C@@H]1O [Compound 219]
33 | > 500 | O=[N+]([O-])c1ccc(COc2ncnc3c2ncn3[C@@H]2O[C@H](CO)[C@@H](O)C2(F)F)cc1 [Compound 220]
34 | > 500 | C[C@H]1O[C@@H](n2cnc3c(OCc4cccc(C#N)c4)ncnc32)[C@H](O)[C@@H]1O [Compound 221]
35 | > 500 | C[C@H]1O[C@@H](n2cnc3c(OCc4ccc([N+](=O)[O-])cc4)nc(Cl)nc32)[C@H](O)[C@@H]1O [Compound 222]
36 | > 500 | C[C@H]1O[C@@H](n2cnc3c(OCCc4cc(F)c(C#N)c(F)c4)ncnc32)[C@H](O)[C@@H]1O [Compound 223]
37 | > 500 | C[C@H]1O[C@@H](n2cnc3c(OCc4ccc([N+](=O)[O-])cc4)nc(F)nc32)[C@H](O)[C@@H]1O [Compound 225]
38 | > 500 | C[C@H]1O[C@@H](n2cnc3c(OCc4ccc(Cl)c(Cl)c4)ncnc32)[C@H](O)[C@@H]1O [Compound 226]
39 | > 500 | C[C@H]1O[C@@H](n2cnc3c(C4CCc5ccc([N+](=O)[O-])cc5C4)ncnc32)[C@H](O)[C@@H]1O (stereo partly shown) [Compound 227]
40 | > 500 | C[C@H]1O[C@@H](n2cnc3c(OC4CCc5ccc([N+](=O)[O-])cc5C4)ncnc32)[C@H](O)[C@@H]1O (stereo partly shown) [Compound 228]
41 | > 500 | O=[N+]([O-])c1ccc(COc2ncnc3c2ncn3[C@@H]2O[C@H](CCO)[C@@H](O)[C@H]2O)cc1 [Compound 229]
42 | > 500 | COc1ccc(COc2ncnc3c2ncn3[C@@H]2O[C@H](C)[C@@H](O)[C@H]2O)cc1C(F)(F)F [Compound 230]
43 | > 500 | COc1ccc(COc2ncnc3c2ncn3[C@@H]2O[C@H](C)[C@@H](O)[C@H]2O)cc1 [Compound 231]
44 | > 500 | C[C@H]1O[C@@H](n2cnc3c(OCCc4ccc(C#N)c(F)c4)ncnc32)[C@H](O)[C@@H]1O [Compound 232]
45 | > 500 | C[C@H]1OC(n2cnc3c(COc4ccc(OC(F)F)cc4)ncnc32)[C@H](O)[C@@H]1O (stereo partly shown) [Compound 233]
46 | > 500 | C[C@H]1O[C@@H](n2cnc3c(OCc4ccc(OC(F)(F)F)c(Cl)c4)ncnc32)[C@H](O)[C@@H]1O [Compound 234]
47 | > 500 | Cc1cc(Cl)ccc1COc1ncnc2c1ncn2[C@@H]1O[C@H](C)[C@@H](O)[C@H]1O [Compound 235]
48 | > 500 | C[C@H]1O[C@@H](n2cnc3c(OCc4ccc(OCCF)cc4)ncnc32)[C@H](O)[C@@H]1O [Compound 236]
49 | > 500 | C[C@H]1O[C@H](n2cnc3c(OCc4ccc(C#N)c(F)c4)nc(Cl)nc32)[C@H](O)[C@@H]1O [Compound 237]
